The text below walks through data of article PMC4883699 (Bioorganic & medicinal chemistry, 2009).

The nature of data set [1]: Cytotoxicity on Vero cells. The following applies: African green monkey.
Data set [2] is described as follows: in vitro. Particulars: African green monkey.
The test system of data set [3] is P. berghei (NK-65 strain). In words: In vivo antimalarial activity in P. berghei infected mice. Further details: species or system mice (Swiss Webster). The following applies: for apparent toxicity in vivo: oral, 30 mg/kg once daily for three days, mice.
The test system of data set [4] is malaria parasite. The following applies: cited from earlier work; for reduction in parasitemia: oral, 2 × 100 μmol/kg; for survival times versus chloroquine or artemisinin treated mice: single dose 50 or 100 μmol/kg.
Data set [5] deals with Mycobacterium intracellulare. The experiment in a line: In vitro antimicrobial activity, M. intracellulare. In kind it is cell-based. The following applies: read-out: M. intracellulare IC50.
Data set [6] relates to African green monkey kidney fibroblast cells (Vero). The following applies: cited from earlier work.
The subject of data set [7] is Plasmodium falciparum (D6 clone, Sierra Leone, chloroquine sensitive). The experiment in a line: In vitro antimalarial activity, chloroquine sensitive D6 clone. In kind it is cell-based. The following applies: D6, read-out: P. falciparum (D6 Clone) IC50.
For data set [8], the system named is Plasmodium falciparum (W2 clone, IndoChina, chloroquine resistant). In words: In vitro antimalarial activity, chloroquine resistant W2 clone. Particulars: W2, read-out: P. falciparum (W2 Clone) IC50. It is filed as cell-based.
Where [9] appears, read: Vero cells (African green monkey kidney fibroblast cells).

Structures are written as SMILES.

Consider `CC(C)C(=O)Nc1cccc2c1[nH]c1c(C3=C[C@@]4(O)CC/C=C\CCCCN5CC[C@@H]3[C@]3(C[C@@H]6/C=C\CCCCN6[C@H]34)C5)nccc12` [Compound 18, 8-Isobutamidomanzamine A], for which the IC50 (commonly the midpoint of a concentration-inhibition curve) in data set [1] (setting [9]) is greater than 470 nM.

In the case of `CCCCC(=O)Nc1ccc2[nH]c3c(C4=C[C@@]5(O)CC/C=C\CCCCN6CC[C@@H]4[C@]4(C[C@@H]7/C=C\CCCCN7[C@H]45)C6)nccc3c2c1` [Compound 9, 6-n-Pentamidomanzamine A], the IC50 in data set [2] is greater than 470 nM.

`O=C(Nc1cccc2c1[nH]c1c(C3=C[C@@]4(O)CC/C=C\CCCCN5CC[C@@H]3[C@]3(C[C@@H]6/C=C\CCCCN6[C@H]34)C5)nccc12)C1CCCCC1` [Compound 24, 8-Cyclohexamidomanzamine A] showed an IC50 in data set [2] greater than 470 nM.

Compound `CCCCCC(=O)Nc1ccc2[nH]c3c(C4=C[C@@]5(O)CC/C=C\CCCCN6CC[C@@H]4[C@]4(C[C@@H]7/C=C\CCCCN7[C@H]45)C6)nccc3c2c1` [Compound 11, 6-n-Hexamidomanzamine A] had an IC50 in data set [2] greater than 470 nM.

As for `CCC(=O)Nc1ccc2[nH]c3c(C4=C[C@@]5(O)CC/C=C\CCCCN6CC[C@@H]4[C@]4(C[C@@H]7/C=C\CCCCN7[C@H]45)C6)nccc3c2c1` [Compound 6, 6-n-Propamidomanzamine A], the IC50 in data set [1] (setting [9]) was greater than 470 nM.

In turn, `O=C(Nc1ccc2[nH]c3c(C4=C[C@@]5(O)CC/C=C\CCCCN6CC[C@@H]4[C@]4(C[C@@H]7/C=C\CCCCN7[C@H]45)C6)nccc3c2c1)C1CCCCC1` [Compound 14, 6-Cyclohexamidomanzamine A] returned an IC50 in data set [1] greater than 470 nM. Besides, the “apparent toxicity in vivo” value in data set [3] is recorded as “no apparent toxicity”.

`CC(C)(C)C(=O)Nc1ccc2[nH]c3c(C4=C[C@@]5(O)CC/C=C\CCCCN6CC[C@@H]4[C@]4(C[C@@H]7/C=C\CCCCN7[C@H]45)C6)nccc3c2c1` [Compound 10, 6-Pivalamidomanzamine A] registered an IC50 in data set [1] (setting [9]) greater than 470 nM.

`O[C@]12C=C(c3nccc4c3[nH]c3ccccc34)[C@@H]3CCN(CCCC/C=C\CC1)C[C@@]31C[C@@H]3/C=C\CCCCN3[C@H]12` [Compound 1, Manzamine A]: in data set [4], the reduction in parasitemia is 90% and the “survival times versus chloroquine or artemisinin treated mice” value is on record as “significant improvements in survival times”. For the same compound, the midpoint of inhibition in data set [1], the IC50, lay at 365 nM. Further, the IC50 in data set [5] was determined as 640 nM. In addition, the “TC50 against Vero cells” value in data set [6] is 365 nM.

For the compound `CCN(CC)CCCC(C)Nc1ccnc2cc(Cl)ccc12` (centres unmarked) [Chloroquine], the IC50 in data set [7] is 50 nM; in data set [8], 484 nM. Also, in data set [3] (chloroquine control, 10 mg/kg, three doses), the “suppression of the parasitemia” value was determined as 100%.

Take `CCCCCC(=O)Nc1cccc2c1[nH]c1c(C3=C[C@@]4(O)CC/C=C\CCCCN5CC[C@@H]3[C@]3(C[C@@H]6/C=C\CCCCN6[C@H]34)C5)nccc12` [Compound 21, 8-n-Hexamidomanzamine A]: in data set [3], the “apparent toxicity in vivo” value was “no apparent toxicity”.

In the case of `CC(C)C(=O)Nc1ccc2[nH]c3c(C4=C[C@@]5(O)CC/C=C\CCCCN6CC[C@@H]4[C@]4(C[C@@H]7/C=C\CCCCN7[C@H]45)C6)nccc3c2c1` [Compound 8, 6-Isobutamidomanzamine A], the IC50 in data set [1] is greater than 470 nM.

In data set [2], `CC(C)(C)CC(=O)Nc1cccc2c1[nH]c1c(C3=C[C@@]4(O)CC/C=C\CCCCN5CC[C@@H]3[C@]3(C[C@@H]6/C=C\CCCCN6[C@H]34)C5)nccc12` [Compound 23, 8-(t-Butyl)-acetamidomanzamine A] displayed an IC50 greater than 470 nM.

In the case of `Oc1cccc2c1[nH]c1c(C3=C[C@@]4(O)CC/C=C\CCCCN5CC[C@@H]3[C@]3(C[C@@H]6/C=C\CCCCN6[C@H]34)C5)nccc12` [Compound 2, 8-Hydroxymanzamine A], in data set [4], the reduction in parasitemia was 90% and the “survival times versus chloroquine or artemisinin treated mice” value is recorded as “significant improvements in survival times”.

`CCCCC(=O)Nc1cccc2c1[nH]c1c(C3=C[C@@]4(O)CC/C=C\CCCCN5CC[C@@H]3[C@]3(C[C@@H]6/C=C\CCCCN6[C@H]34)C5)nccc12` [Compound 19, 8-n-Pentamidomanzamine A] showed an IC50 in data set [2] greater than 470 nM.

`CC(C)(C)CC(=O)Nc1ccc2[nH]c3c(C4=C[C@@]5(O)CC/C=C\CCCCN6CC[C@@H]4[C@]4(C[C@@H]7/C=C\CCCCN7[C@H]45)C6)nccc3c2c1` [Compound 13, 6-(t-Butyl)-acetamidomanzamine A] yielded an IC50 in data set [1] (setting [9]) greater than 470 nM.
